# Assay results reported in article PMC11002876, “KcsA-Kv1.x chimeras with complete ligand-binding sites provide improved predictivity for screening selective Kv1.x blockers” (The Journal of Biological Chemistry, 2024).
# Where two headings read alike, the source gives them in different places. Where a SMILES comes first, the peptide text is derived from it.
# Legend:
# [1] = molecular target: T1, KcsA-Kv1.2 T+F chimera (Streptomyces lividans, UniProt P0A334, R52A/G53D/A54E/P55R/G56E/A57S/L59F/I60P/T61S/Y62I/R64D/L81M/Y82V/V84T); test: Phage-binding competition assay, KcsA-Kv1.2 T+F; set-up: species or system human Kv1.2 turret and filter in Streptomyces lividans KcsA; conditions: rank by competition IC50 among MTX, ShK, KTX1
# T1 sequence (P0A334 1-160 R52A/G53D/A54E/P55R/G56E/A57S/L59F/I60P/T61S/Y62I/R64D/L81M/Y82V/V84T): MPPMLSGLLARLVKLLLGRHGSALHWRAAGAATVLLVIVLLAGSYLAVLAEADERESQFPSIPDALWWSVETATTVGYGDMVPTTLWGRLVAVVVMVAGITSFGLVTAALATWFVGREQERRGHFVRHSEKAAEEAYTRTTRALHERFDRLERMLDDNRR
# Method: (§1) Phage stock solutions were diluted to working concentration with phage resuspension buffer supplemented with 2 mM DDM. For protein immobilization, the following amounts were used in a final volume of 50 μl/well: wt KcsA, 0.1 μg; KcsA-Kv1.1 T-only, 0.005 μg; KcsA-Kv1.1 T+F, 0.02 μg; KcsA-Kv1.2 T-only, 0.01 μg; KcsA-Kv1.2 T+F, 0.1 μg; KcsA-Kv1.3 T-only, 0.01 μg; and KcsA-Kv1.3 T+F, 0.1 μg. Protein samples were diluted in 50 μl of storage buffer (20 mM Tris pH8.0, 300 mM KCl, 2 mM DDM) and were added to the designated wells of a Pierce Clear, 96-Well Nickel Coated Plate (15442, Thermo Fisher Scientific), then incubated for 1 h at room temperature on a horizontal shaker at 130 rpm. The plate was blocked for 1 h at room temperature with 180 μl/well TBS-BSA supplemented with 1 mM DDM. Following blocking, the wells were washed 4× with washing buffer (300 μl TBS-Tween, 0.1% v/v) using a Wellwash Versa microplate washer (Thermo Fisher Scientific); then 50 μl phage solution (in TBS-BSA-Tween, 0.1% v/v, 2 mM DDM) at determined phage concentration was added to the wells and incubated for 1 h at room temperature on a horizontal shaker. The plate was washed 4× with washing buffer, then 50 μl anti-M13 IgG HRP (MA5-36125, Invitrogen) diluted to 1:2500 in TBS-Tween (0.1% v/v) was added to the wells and incubated for 1 h at room temperature. The plate was washed again 4× with 300 μl/well washing buffer. Finally, 50 μl/well 1-Step Ultra TMB-ELISA solution (34028, Thermo Fisher Scientific) was added to the wells, and the developing signal was stopped with 50 μl 1M HCl after 5 to 10 min. The light absorbance signal was read at 450 nm with Byonoy absorbance 96 plate reader (Byonoy GmbH).
# (§2) For protein immobilization, the following amounts were used in a final volume of 50 μl/well: KcsA-Kv1.1 T-only, 0.005 μg; KcsA-Kv1.1 T+F, 0.01 μg; KcsA-Kv1.2 T-only, 0.025 μg; KcsA-Kv1.2 T+F, 0.0125 μg; KcsA-Kv1.3 T-only, 0.01 μg; and KcsA-Kv1.3 T+F, 0.1 μg. Protein samples were diluted in storage buffer. Binding of given concentrations of relevant ligand-displaying phages quantified by light absorbance ([…]) were investigated in a similar manner as in phage ELISA-binding assay, while different concentrations of competing toxin test substances were applied simultaneously. The results were converted to percent inhibitions (percent displacement) of the indicator phage binding, and relative affinities of the tested toxins were assessed by plotting percent displacements against log concentrations and determining half maximal inhibitory concentrations (IC50) by sigmoidal curve fitting using “Sigmoidal dose-response (variable slope) with least squares method” algorithm in GraphPad Prism 8 using the following equation: Y=Bottom+Top−Bottom/1+10^(LogEC50−×)⋅HillSlope
# [2] = molecular target: T2, KcsA-Kv1.2 T+F chimera (Streptomyces lividans, UniProt P0A334, A54E/A57S/G53D/G56E/I60P/L59F/L81M/P55R/R52A/R64D/T61S/V84T/Y62I/Y82V); test: Phage-binding competition assay, KcsA-Kv1.2 T+F; set-up: species or system human Kv1.2 turret and filter in Streptomyces lividans KcsA
# T2 sequence (P0A334 1-160 R52A/G53D/A54E/P55R/G56E/A57S/L59F/I60P/T61S/Y62I/R64D/L81M/Y82V/V84T): T1 sequence (P0A334 1-160 R52A/G53D/A54E/P55R/G56E/A57S/L59F/I60P/T61S/Y62I/R64D/L81M/Y82V/V84T)
# Method: as §1, §2
# [3] = displacement of HgTx1-phage, KcsA-Kv1.2 T+F 0.0125 μg/well on nickel-coated plate, mean ± SD (n = 3), read-out: IC50, T+F chimera (Kv1.2)
SMILES,"Rank, T+F chimera (Kv1.2) [1]","IC50 [2, 3]","IC50 ([2]; HgTx1-phage competition, KcsA-Kv1.2 T+F, value given in figure, sigmoidal fit to means of three replicates, read-out: IC50 (Fig. 7F))"
"CC[C@H](C)[C@H](NC(=O)[C@H](CCC(=O)O)NC(=O)[C@@H](NC(=O)CN)C(C)C)C(=O)N[C@@H](CC(N)=O)C(=O)N[C@H](C(=O)N[C@@H](CCCCN)C(=O)N[C@H]1CSSC[C@@H]2NC(=O)[C@H](CCCCN)NC(=O)CNC(=O)[C@H](Cc3ccccc3)NC(=O)[C@H](CCCNC(=N)N)NC(=O)[C@H](CCSC)NC(=O)CNC(=O)[C@H](C)NC(=O)[C@H](CC(=O)O)NC(=O)[C@H](CCCCN)NC(=O)[C@@H]3CSSC[C@@H](C(=O)N[C@H](C(=O)N4CCC[C@H]4C(=O)N[C@@H](CCCCN)C(=O)O)[C@@H](C)O)NC(=O)[C@H](Cc4c[nH]cn4)NC(=O)[C@H](CSSC[C@H](NC(=O)[C@H](CCC(N)=O)NC(=O)[C@@H]4CCCN4C(=O)[C@H](CO)NC(=O)CNC(=O)[C@H](CO)NC1=O)C(=O)N[C@@H](CC(C)C)C(=O)N[C@@H](CCCCN)C(=O)N1CCC[C@H]1C(=O)N3)NC(=O)[C@H](CCCCN)NC(=O)[C@H](CCCNC(=N)N)NC(=O)[C@H](CC(N)=O)NC(=O)[C@H](CCSC)NC2=O)C(C)C [KTX1, Kaliotoxin-1]",3,205 nM,–
"CC[C@H](C)[C@@H]1NC(=O)[C@@H]2CSSC[C@H](NC(=O)[C@H](CO)NC(=O)[C@@H](N)C(C)C)C(=O)N[C@@H]([C@@H](C)O)C(=O)NCC(=O)N[C@@H](CO)C(=O)N[C@@H](CCCCN)C(=O)N[C@@H](CC(=O)O)C(=O)N[C@@H](CSSC[C@@H](C(=O)N[C@@H](CCCCN)C(=O)N[C@H]3CSSC[C@@H](C(N)=O)NC(=O)CNC(=O)[C@H](Cc4ccc(O)cc4)NC3=O)NC(=O)[C@H](CO)NC(=O)[C@H](CCCCN)NC(=O)[C@H](CC(N)=O)NC1=O)C(=O)N[C@@H](Cc1ccc(O)cc1)C(=O)N[C@@H](C)C(=O)N1CCC[C@H]1C(=O)N[C@H]1CSSC[C@H](NC(=O)CNC(=O)[C@H]([C@@H](C)O)NC(=O)[C@H](CCC(N)=O)NC(=O)[C@H](CCCCN)NC(=O)[C@H](CCCNC(=N)N)NC1=O)C(=O)N1CCC[C@H]1C(=O)N[C@@H](CC(N)=O)C(=O)N[C@@H](C)C(=O)N[C@@H](CCCCN)C(=O)N2 [MTX, Maurotoxin] (HELM PEPTIDE1{V.S.C.T.G.S.K.D.C.Y.A.P.C.R.K.Q.T.G.C.P.N.A.K.C.I.N.K.S.C.K.C.Y.G.C.[am]}$PEPTIDE1,PEPTIDE1,3:R3-24:R3|PEPTIDE1,PEPTIDE1,9:R3-29:R3|PEPTIDE1,PEPTIDE1,13:R3-19:R3|PEPTIDE1,PEPTIDE1,31:R3-34:R3$$$V2.0; N-terminus and C-terminus assumed)",1,–,0.129 nM
"CC[C@H](C)[C@@H]1NC(=O)[C@@H](NC(=O)[C@H](CO)NC(=O)[C@@H](N)CCCNC(=N)N)CSSC[C@@H](C(=O)O)NC(=O)[C@H]([C@@H](C)O)NC(=O)CNC(=O)[C@@H]2CSSC[C@@H]3NC(=O)[C@H](CCC(N)=O)NC(=O)[C@H](Cc4ccccc4)NC(=O)[C@H](C)NC(=O)[C@H]([C@@H](C)O)NC(=O)[C@H](CSSC[C@H](NC(=O)[C@H](Cc4ccccc4)NC(=O)[C@H](CO)NC(=O)[C@H](CC(C)C)NC(=O)[C@H](CCCNC(=N)N)NC(=O)[C@H](Cc4ccc(O)cc4)NC(=O)[C@H](CCCCN)NC(=O)[C@H](CCSC)NC(=O)[C@H](CO)NC(=O)[C@H](Cc4c[nH]cn4)NC(=O)[C@H](CCCCN)NC3=O)C(=O)N[C@@H](CCCNC(=N)N)C(=O)N[C@@H](CCCCN)C(=O)N[C@@H]([C@@H](C)O)C(=O)N2)NC(=O)[C@H](CCCNC(=N)N)NC(=O)[C@H](CO)NC(=O)[C@H](CCCCN)NC(=O)[C@@H]2CCCN2C(=O)[C@H]([C@@H](C)CC)NC(=O)[C@H]([C@@H](C)O)NC(=O)[C@H](CC(=O)O)NC1=O [ShK, Stichodactyla toxin]",2,15.9 nM,–
